One block for each molecule: values may come before it.
Key:
Format in all cases: physicochemical
[1] = Miscibility of alkyl ketal esters with water; details: for miscibility with water: miscibility assessed at 25° C unless stated otherwise; for miscible in water to the extent of: parts of ester, balance to 100 parts is water (1 per 99, 2.5 in 97.5, 5 per 95)
Description: (§1) Unless stated otherwise, miscibility is assessed at 25° C.

[2] = Miscibility of alkyl ketal esters with organic compounds; details: parts of the organic compound in 80 parts of the alkyl ketal ester; organic compounds as listed in the block
Description: as §1

[3] = Compatibility between waxes and alkyl ketal esters (melt, cool to room temperature)
Description: Compatibility between various waxes and the alkyl ketal esters was first determined as detailed below. Table 10 below details the fragrant formulations for 10 different candles (Examples 116-125) that contain the fragrant composition.
Beeswax and Et-LGK were weighed into a vessel in a 50/50 weight ratio and heated to 80° C. to form a uniform molten mixture.
Gulf Wax brand of household paraffin wax for canning and candlemaking (distributed by Royal Oak Enterprises) was used in these experiments.

[4] = Dissolution of vanillin in alkyl ketal esters
Description: […] […] Dissolution is much quicker at 80° C.
Vanillin was dissolved at 25% solids by weight in Et-LPK with slight heating (80° C.).

[5] = Compatibility between waxes and alkyl ketal esters (melt, cool to room temperature); details: 25/75 weight ratio of Et-LGK to beeswax, 80° C, cooled
[6] = NatureWax C-3 / ester 90/10 weight ratio, 80° C, cooled
[7] = beeswax / ester 50/50 weight ratio, melted at 80° C, cooled to room temperature
[8] = candelilla wax / ester 50/50 weight ratio, 120° C, cooled
[9] = carnauba wax / ester 50/50 weight ratio, 120° C, cooled
[10] = paraffin wax / ester 75/25 weight ratio, 80° C, cooled to room temperature
[11] = NatureWax C-1 / ester 90/10 weight ratio, 80° C, cooled
[12] = NatureWax P-1 / ester 75/25 weight ratio, 80° C, cooled
[13] = paraffin wax / ester 50/50 weight ratio, 80° C, cooled to room temperature
[14] = stearic acid / ester 50/50 weight ratio, 80° C, cooled to room temperature
[15] = vanillin at 10% solids by weight in the ester, room temperature

Compound: CCCCOC(=O)CCC1(C)OCC(CO)O1 (stereo not shown) [Bu-LGK, glycerol ketal of butyl levulinate]
miscible in water to the extent of [1]: 1 parts
dissolves or is miscible with organic compounds to the extent of [2]: at least 20 parts
layers upon cooling ([3]; NatureWax C-1 / ester 50/50 weight ratio, 80° C, cooled): single homogenous wax layer
layers upon cooling [3, 6]: single homogenous wax layer
layers upon cooling ([3]; NatureWax P-1 / ester 50/50 weight ratio, 80° C, cooled): single homogenous wax layer
layers upon cooling [3, 7]: single homogenous wax layer
layers upon cooling [3, 8]: single homogenous wax layer
layers upon cooling [3, 9]: single homogenous wax layer
layers upon cooling [3, 10]: Two layers formed
dissolution of vanillin ([4]; vanillin at 25% solids by weight in the ester, room temperature): initially appeared to be insoluble but over the course of five days, the vanillin dissolved, resulting in a clear uniform mixture

Compound: COC(=O)CC1(C)OCC(CO)O1 (stereo not shown) [Me-AcAcGK]
miscibility with water [1]: miscible with water in all proportions

Compound: CCOC(=O)CCC1(C)OCCO1 [ethyl-LEK]
miscible in water to the extent of [1]: 5 parts

Compound: CCOC(=O)CCC1(C)OCC(C)O1 (stereo not shown) [Et-LPK, propylene glycol ketal of ethyl levulinate]
miscible in water to the extent of [1]: 2.5 parts
dissolves or is miscible with organic compounds to the extent of [2]: at least 20 parts
layers upon cooling [3, 11]: single homogenous wax layer
layers upon cooling [3, 6]: single homogenous wax layer
layers upon cooling [3, 12]: single homogenous wax layer
layers upon cooling [3, 7]: single homogenous wax layer
layers upon cooling [3, 8]: single homogenous wax layer
layers upon cooling [3, 9]: single homogenous wax layer
layers upon cooling [3, 13]: single homogenous wax layer
layers upon cooling [3, 10]: single homogenous wax layer
layers upon cooling [3, 14]: single homogenous wax layer
dissolution of vanillin [4, 15]: clear uniform mixture
dissolution of vanillin ([4]; vanillin at 25% solids by weight in the ester, slight heating (80° C)): clear uniform solutions hot and stayed as a clear uniform mixture at room temperature initially
precipitation of vanillin on standing ([4]; vanillin at 25% solids by weight, dissolved at 80° C, then room temperature): Within an hour, signs of precipitation at room temperature appeared

Compound: CCCCOC(=O)CCC1(C)OCC(C)O1 (stereo not shown) [n-butyl-LPK]
dissolves or is miscible with organic compounds to the extent of [2]: at least 20 parts

More lines, now with the values ahead:

miscibility with water [1]: miscible with water in all proportions
Compound: CCOC(=O)CC1(C)OCC(CO)O1 (stereo not shown) [Et-AcAcGK]

miscibility with water [1]: miscible in water in all proportions
dissolves or is miscible with organic compounds to the extent of [2]: at least 20 parts
layers upon cooling ([3]; 25/75 Et-LGK to stearic acid by weight, 80° C, cooled): single homogenous wax layer
layers upon cooling [3, 11]: single homogenous wax layer
layers upon cooling [3, 6]: single homogenous soft wax layer
layers upon cooling [3, 12]: single homogenous wax layer
layers upon cooling [3, 7]: Two layers formed
layers upon cooling ([3]; candelilla wax / ester 75/25 weight ratio, 120° C, cooled to room temperature): Two layers formed
layers upon cooling ([3]; candelilla wax / ester 90/10 weight ratio, 120° C, cooled): single homogenous wax layer
layers upon cooling [3, 9]: Two layers formed
layers upon cooling ([3]; carnauba wax / ester 75/25 weight ratio, 120° C, cooled): single homogenous wax layer
layers upon cooling [3, 13]: Two layers formed
layers upon cooling ([3]; paraffin wax / ester 90/10 weight ratio, 80° C, cooled to room temperature): single homogenous wax layer
layers upon cooling [3, 14]: Two layers formed
dissolution of vanillin [4, 15]: clear uniform mixture
layers upon cooling [5]: single homogenous wax layer
Compound: CCOC(=O)CCC1(C)OCC(CO)O1 (stereo not shown) [Et-LGK, glycerol ketal of ethyl levulinate]

miscibility with water [1]: miscible with water in all proportions
Compound: COC(=O)CCC1(C)OCC(CO)O1 (stereo not shown) [methyl-LGK]

miscible in water to the extent of [1]: 1 parts
Compound: CCCOC(=O)CCC1(C)OCC(CO)O1 (stereo not shown) [n-propyl-LGK]
